Test results from patent publication US4272437A, “Antibacterial agents, and 4-thio azetidinone intermediates” (priority 1979, dated 1981).
Values after ≈ are worked out from the molar mass of the structure shown. Read-outs that look alike come from different tables or passages of the source.

Tests used:
[1] = system: Str. pneumoniae A-9585; assay: MIC, tube dilution, Streptococcus pneumoniae A9585; type: cell-based; conditions: overnight 37° C., Nutrient Broth
From the text: (§1) Representative compounds of the present invention were subjected to in vitro antibiotic screening against a variety of microorganisms.

[2] = system: Str. pyogenes A-9604; assay: MIC, tube dilution, Streptococcus pyogenes A9604; type: cell-based; conditions: overnight 37° C., Nutrient Broth
From the text: as §1

[3] = system: Staph. aureus A-9537; assay: MIC, tube dilution, Staphylococcus aureus A9537; type: cell-based; conditions: overnight 37° C., Nutrient Broth; for MIC: Staphylococcus aureus, A9537, Staph. aureus A9537, read-out: Minimum Inhibitory Concentration (M.I.C.)
From the text: as §1

[4] = system: Staph. aureus A-9537 and 50% serum; assay: MIC, tube dilution, Staph. aureus A9537 + 50% serum; type: cell-based, Staphylococcus aureus; conditions: overnight 37° C.; for MIC: Staphylococcus aureus, read-out: Minimum Inhibitory Concentration (M.I.C.)
From the text: as §1

[5] = system: Staph. aureus (Pen-Res) A-9606; assay: MIC, tube dilution, Staphylococcus aureus A9606 (Pen-Res); type: cell-based; conditions: overnight 37° C.; for MIC: Staphylococcus aureus
From the text: as §1

[6] = system: Staph. aureus (Meth-Res) A-15097; assay: MIC, tube dilution, Staphylococcus aureus A15097 (Meth-Res); type: cell-based; conditions: overnight 37° C.; for MIC: Staphylococcus aureus
From the text: as §1

[7] = system: Str. faecalis A-20688; assay: MIC, tube dilution, Streptococcus faecalis A20688; type: cell-based; conditions: overnight 37° C.; for MIC: Enterococcus faecalis, A20688, Str. faecalis A20688, read-out: Minimum Inhibitory Concentration (M.I.C.)
From the text: as §1

[8] = system: E. coli A-15119; assay: MIC, tube dilution, Escherichia coli A15119; type: cell-based; conditions: overnight 37° C.; for MIC: Escherichia coli, A15119, E. coli A15119, read-out: Minimum Inhibitory Concentration (M.I.C.); for Minimum Inhibitory Concentration (M.I.C.): E. coli A15119
From the text: as §1

[9] = system: E. coli A-20341-1; assay: MIC, tube dilution, Escherichia coli A20341-1; type: cell-based
From the text: as §1

[10] = system: K. pneumoniae A-15130; assay: MIC, tube dilution, Klebsiella pneumoniae A15130; type: cell-based; conditions: overnight 37° C.; for MIC: Klebsiella pneumoniae, A15130, K. pneumoniae A15130, read-out: Minimum Inhibitory Concentration (M.I.C.); for Minimum Inhibitory Concentration (M.I.C.): K. pneumoniae A15130
From the text: as §1

[11] = system: Klebsiella species A20468; assay: MIC, tube dilution, Klebsiella species A20468; type: cell-based; conditions: Klebsiella species (K. pneumoniae) A20468, overnight 37° C.; for MIC: read-out: Minimum Inhibitory Concentration (M.I.C.)
From the text: as §1

[12] = system: Pr. mirabilis A-9900; assay: MIC, tube dilution, Proteus mirabilis A9900; type: cell-based; conditions: overnight 37° C.; for MIC: Proteus mirabilis, A9900, Proteus mirabilis A9900, read-out: Minimum Inhibitory Concentration (M.I.C.)
From the text: as §1

[13] = system: Pr. vulgaris A-9716; assay: MIC, tube dilution, Proteus vulgaris / Proteus mirabilis A9716; type: cell-based, Proteus vulgaris (name changed to Proteus mirabilis); conditions: Proteus vulgaris, overnight 37° C.
From the text: as §1

[14] = system: Pr. morganii A-15153; assay: MIC, tube dilution, Proteus morganii A15153; type: cell-based; conditions: overnight 37° C.; for MIC: Morganella morganii, A15153, Proteus morganii A15153, read-out: Minimum Inhibitory Concentration (M.I.C.); for Minimum Inhibitory Concentration (M.I.C.): Proteus morganii A15153
From the text: as §1

[15] = system: Providencia stuartii A21205; assay: MIC, tube dilution, Providencia stuartii (Pr. rettgeri) A21205; type: cell-based; conditions: for MIC: Providencia stuartii
From the text: as §1

[16] = system: Ser. marcescens A-20019; assay: MIC, tube dilution, Serratia marcescens A20019; type: cell-based; conditions: overnight 37° C.; for MIC: Serratia marcescens, A20019, Serratia marcescens A20019, read-out: Minimum Inhibitory Concentration (M.I.C.); for Minimum Inhibitory Concentration (M.I.C.): Serratia marcescens A20019
From the text: as §1

[17] = system: Ent. cloacae A-9659; assay: MIC, tube dilution, Enterobacter cloacae A9659; type: cell-based; conditions: overnight 37° C.; for MIC: Enterobacter cloacae, A9659, Enterobacter cloacae A9659, read-out: Minimum Inhibitory Concentration (M.I.C.); for Minimum Inhibitory Concentration (M.I.C.): Enterobacter cloacae A9659
From the text: as §1

[18] = system: Ent. cloacae A-9656; assay: MIC, tube dilution, Enterobacter cloacae A9656; type: cell-based; conditions: overnight 37° C.; for MIC: read-out: Minimum Inhibitory Concentration (M.I.C.)
From the text: as §1

[19] = system: Ps. aeruginosa A-9843A; assay: MIC, tube dilution, Pseudomonas aeruginosa A9843A; type: cell-based; conditions: overnight 37° C.
From the text: as §1

[20] = system: Ps. aeruginosa A-21213; assay: MIC, tube dilution, Pseudomonas aeruginosa A21213; type: cell-based; conditions: Pseudomonas aeruginosa A21213, overnight 37° C.
From the text: as §1

**Q.** Which MIC ([1]; Streptococcus pneumoniae, A9585, Str. pneumoniae A9585, read-out: Minimum Inhibitory Concentration (M.I.C.)) does the source give for `CC1=C(C(=O)O)N2C(=O)C(C(O)c3ccccc3)C2S1` (stereo not shown) [Example 4] here?
**A.** 1 µg/mL (≈ 3.43 µM)

**Q.** What about the MIC ([2]; Streptococcus pyogenes, A9604, Str. pyogenes A9604, read-out: Minimum Inhibitory Concentration (M.I.C.)) of the same compound?
**A.** 4 µg/mL (≈ 13.7 µM)

**Q.** And the MIC [3]?
**A.** 8 µg/mL (≈ 27.5 µM)

**Q.** What about the MIC [4] of the same compound?
**A.** > 63 µg/mL

**Q.** And the MIC ([5]; Staph. aureus A9606 (Pen-Res), read-out: Minimum Inhibitory Concentration (M.I.C.))?
**A.** 4 µg/mL (≈ 13.7 µM)

**Q.** And the MIC ([6]; Staph. aureus A15097 (Meth-Res), read-out: Minimum Inhibitory Concentration (M.I.C.))?
**A.** 125 µg/mL (≈ 429 µM)

**Q.** What about the MIC [7] of the same compound?
**A.** 125 µg/mL (≈ 429 µM)

**Q.** And the MIC [8]?
**A.** > 125 µg/mL

**Q.** And the MIC ([9]; Escherichia coli, A203411, E. coli A20341-1; overnight 37° C.; read-out: Minimum Inhibitory Concentration (M.I.C.))?
**A.** > 125 µg/mL

**Q.** And the MIC [10]?
**A.** > 125 µg/mL

**Q.** What about the MIC [11] of the same compound?
**A.** > 125 µg/mL

**Q.** And the MIC [12]?
**A.** 63 µg/mL (≈ 216 µM)

**Q.** And the MIC ([13]; A9716, Proteus vulgaris / Proteus mirabilis A9716, read-out: Minimum Inhibitory Concentration (M.I.C.))?
**A.** 63 µg/mL (≈ 216 µM)

**Q.** And the MIC [14]?
**A.** 125 µg/mL (≈ 429 µM)

**Q.** What about the MIC ([15]; A21205, Providencia stuartii (Pr. rettgeri) A21205, overnight 37° C., read-out: Minimum Inhibitory Concentration (M.I.C.)) of the same compound?
**A.** 125 µg/mL (≈ 429 µM)

**Q.** What about the MIC [16] of the same compound?
**A.** > 125 µg/mL

**Q.** What about the MIC [17] of the same compound?
**A.** > 125 µg/mL

**Q.** What about the MIC ([18]; Enterobacter cloacae, A9656, Enterobacter cloacae A9656) of the same compound?
**A.** > 125 µg/mL

**Q.** What does the source list for `CCC1C(=O)N2C(C(=O)[O-])=C(C)S[C@H]12.[Na+]` (stereo partly drawn) [1 (trans), Sodium 6-Ethyl-2-methylpenem-3-carboxylate]?
**A.** Minimum Inhibitory Concentration (M.I.C.) ([1]; Str. pneumoniae A9585): 2 µg/mL; Minimum Inhibitory Concentration (M.I.C.) ([2]; Str. pyogenes A9604): 4 µg/mL; Minimum Inhibitory Concentration (M.I.C.) ([3]; Staph. aureus A9537): 8 µg/mL; Minimum Inhibitory Concentration (M.I.C.) [4]: > 63 µg/mL; Minimum Inhibitory Concentration (M.I.C.) ([5]; Staph. aureus A9606 (Pen-Res)): 8 µg/mL; Minimum Inhibitory Concentration (M.I.C.) ([6]; Staph. aureus A15097 (Meth-Res)): 8 µg/mL; Minimum Inhibitory Concentration (M.I.C.) ([7]; Str. faecalis A20688): > 125 µg/mL; Minimum Inhibitory Concentration (M.I.C.) [8]: 125 µg/mL; Minimum Inhibitory Concentration (M.I.C.) ([9]; E. coli A20341-1; overnight 37° C.): 125 µg/mL; Minimum Inhibitory Concentration (M.I.C.) [10]: > 125 µg/mL; Minimum Inhibitory Concentration (M.I.C.) [11]: > 125 µg/mL; Minimum Inhibitory Concentration (M.I.C.) ([12]; Proteus mirabilis A9900): 125 µg/mL; Minimum Inhibitory Concentration (M.I.C.) [14]: > 125 µg/mL; Minimum Inhibitory Concentration (M.I.C.) ([15]; Providencia stuartii (Pr. rettgeri) A21205, overnight 37° C.): 63 µg/mL; Minimum Inhibitory Concentration (M.I.C.) [16]: > 125 µg/mL; Minimum Inhibitory Concentration (M.I.C.) [17]: > 125 µg/mL; Minimum Inhibitory Concentration (M.I.C.) ([18]; Enterobacter cloacae A9656): > 125 µg/mL; Minimum Inhibitory Concentration (M.I.C.) ([19]; Pseudomonas aeruginosa A9843A): > 125 µg/mL; Minimum Inhibitory Concentration (M.I.C.) [20]: > 125 µg/mL

**Q.** With `O=C([O-])C1=C(c2ccccc2)S[C@@H]2CC(=O)N12.[Na+]` [Preparation 7, Sodium 2-Phenylpenem-3-carboxylate] as the compound, how does the MIC [3] read?
**A.** 2 µg/mL

**Q.** What about the MIC [4] of the same compound?
**A.** > 63 µg/mL

**Q.** What about the “Minimum Inhibitory Concentration (M.I.C.)” value ([5]; Staph. aureus A9606 (Pen-Res)) of the same compound?
**A.** 16 µg/mL

**Q.** And the MIC ([5]; read-out: Minimum Inhibitory Concentration (M.I.C.), Staph. aureus A9606 (Pen-Res))?
**A.** 8 µg/mL

**Q.** What about the MIC ([6]; read-out: Minimum Inhibitory Concentration (M.I.C.), Staph. aureus A15097 (Meth-Res)) of the same compound?
**A.** 63 µg/mL

**Q.** And the MIC [7]?
**A.** 16 µg/mL

**Q.** And the “Minimum Inhibitory Concentration (M.I.C.)” value [8]?
**A.** 8 µg/mL

**Q.** What about the MIC [8] of the same compound?
**A.** 4 µg/mL

**Q.** And the MIC ([9]; Escherichia coli, A203411; E. coli A20341-1; overnight 37° C.; read-out: Minimum Inhibitory Concentration (M.I.C.))?
**A.** > 125 µg/mL

**Q.** And the “Minimum Inhibitory Concentration (M.I.C.)” value [10]?
**A.** 125 µg/mL

**Q.** What about the MIC [10] of the same compound?
**A.** 63 µg/mL

**Q.** What about the MIC [11] of the same compound?
**A.** > 125 µg/mL

**Q.** What about the MIC [12] of the same compound?
**A.** 4 µg/mL

**Q.** What about the MIC ([13]; A9716, read-out: Minimum Inhibitory Concentration (M.I.C.), Proteus vulgaris / Proteus mirabilis A9716) of the same compound?
**A.** 4 µg/mL

**Q.** What about the MIC [14] of the same compound?
**A.** 32 µg/mL

**Q.** What about the “Minimum Inhibitory Concentration (M.I.C.)” value [14] of the same compound?
**A.** 63 µg/mL

**Q.** And the MIC ([15]; A21205, read-out: Minimum Inhibitory Concentration (M.I.C.))?
**A.** 16 µg/mL

**Q.** And the “Minimum Inhibitory Concentration (M.I.C.)” value [16]?
**A.** 63 µg/mL

**Q.** What about the MIC [16] of the same compound?
**A.** 32 µg/mL

**Q.** And the “Minimum Inhibitory Concentration (M.I.C.)” value [17]?
**A.** 63 µg/mL

**Q.** And the MIC [17]?
**A.** 32 µg/mL

**Q.** And the MIC ([18]; Enterobacter cloacae A9656)?
**A.** 125 µg/mL

**Q.** And the MIC ([19]; Pseudomonas aeruginosa, A9843A, read-out: Minimum Inhibitory Concentration (M.I.C.), Pseudomonas aeruginosa A9843A)?
**A.** > 125 µg/mL

**Q.** And the MIC ([20]; read-out: Minimum Inhibitory Concentration (M.I.C.))?
**A.** > 125 µg/mL
